According to PubChem BioAssay AID1963977 (Molecular Pharmacology Branch, DTP, NCI, 2024):
Values joined by “and” are separate entries in the source; they are usually repeats but may differ in a detail not shown here. Identical values can stand only once.

Tested on: 624824-186-R-J3-PDC multicell spheroids, viability
Assay: Anticancer human tumor 624824-186-R-J3-PDC patient-derived colon adenocarcinoma cell line growth inhibition [PI3K]
Settings: for viability, T/C: stronger effect = lower value; active means viability on the fitted dose curve at most 10% of control; inactive means the rest
In short: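 High-throughput combination screen: PI3K inhibitors crossed with targeted small molecules on complex spheroids of tumor cells, HUVEC and MSCs at 37 degrees C, 5% CO2. Top concentration was at or near clinical Cmax (otherwise 10 microM), with half-log decrements.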

[1] = curve of first compound, second compound 0.00316 µM
[2] = curve of first compound, second compound 0.01 µM
[3] = curve of first compound, second compound 0.0316 µM
[4] = curve of first compound, second compound 0.1 µM
[5] = curve of first compound, second compound 0.316 µM
[6] = curve of first compound, second compound 1 µM
[7] = second compound 0.00316 µM, first compound 0.0316 µM
[8] = second compound 0.00316 µM, first compound 0.1 µM
[9] = second compound 0.01 µM, first compound 0.0316 µM
[10] = second compound 0.01 µM, first compound 0.1 µM
[11] = second compound 0.0316 µM, first compound 0.0316 µM
[12] = second compound 0.0316 µM, first compound 0.1 µM
[13] = second compound 0.1 µM, first compound 0.0316 µM
[14] = second compound 0.1 µM, first compound 0.1 µM
[15] = second compound 0.316 µM, first compound 0.0316 µM
[16] = second compound 0.316 µM, first compound 0.1 µM
[17] = second compound 1 µM, first compound 0.0316 µM
[18] = second compound 1 µM, first compound 0.1 µM
[19] = second compound 0.00316 µM, first compound 0.316 µM
[20] = second compound 0.00316 µM, first compound 1 µM
[21] = second compound 0.00316 µM, first compound 3.16 µM
[22] = second compound 0.00316 µM, first compound 10 µM
[23] = second compound 0.01 µM, first compound 0.316 µM
[24] = second compound 0.01 µM, first compound 1 µM
[25] = second compound 0.01 µM, first compound 3.16 µM
[26] = second compound 0.01 µM, first compound 10 µM
[27] = second compound 0.0316 µM, first compound 0.316 µM
[28] = second compound 0.0316 µM, first compound 1 µM
[29] = second compound 0.0316 µM, first compound 3.16 µM
[30] = second compound 0.0316 µM, first compound 10 µM
[31] = second compound 0.1 µM, first compound 0.316 µM
[32] = second compound 0.1 µM, first compound 1 µM
[33] = second compound 0.1 µM, first compound 3.16 µM
[34] = second compound 0.1 µM, first compound 10 µM
[35] = second compound 0.316 µM, first compound 0.316 µM
[36] = second compound 0.316 µM, first compound 1 µM
[37] = second compound 0.316 µM, first compound 3.16 µM
[38] = second compound 0.316 µM, first compound 10 µM
[39] = second compound 1 µM, first compound 0.316 µM
[40] = second compound 1 µM, first compound 1 µM
[41] = second compound 1 µM, first compound 3.16 µM
[42] = second compound 1 µM, first compound 10 µM
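Further: spheroids exposed to agents for seven days before luminescence read.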
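Wherever viability, T/C is given: luminescent signal used as a stand-in for spheroid viability; percent viability relative to DMSO vehicle control wells taken as 100%.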

CCN1CCN(Cc2ccc(Nc3ncc(F)c(-c4cc(F)c5nc(C)n(C(C)C)c5c4)n3)nc2)CC1
> 1 µM: IC50 (curve of compound)
inactive: viability, T/C (compound 0.00316 µM) 108% (2×) and 105% and 107% | viability, T/C (compound 0.01 µM) 106% [middle of 4 runs] | viability, T/C (compound 0.0316 µM) 112% (2×) and 105% and 115% | viability, T/C (compound 0.1 µM) 107% [middle of 4 runs] | viability, T/C (compound 0.316 µM) 104% [middle of 4 runs] | viability, T/C (compound 1 µM) 104% [middle of 4 runs]

CC(=O)c1c(C)c2cnc(Nc3ccc(N4CCNCC4)cn3)nc2n(C2CCCC2)c1=O + COc1c(OCCCN2CCOCC2)ccc2c3n(c(=NC(=O)c4cnc(N)nc4)nc12)CCN3
< 0.000316 µM: IC50 [6]
> 0.1 µM: IC50 [1] | IC50 [2] | IC50 [3]
0.000852 µM: IC50 [5]
0.093 µM: IC50 [4]
inactive: viability, T/C (second compound 0.00316 µM, first compound 0.000316 µM) 99.3% | viability, T/C (second compound 0.00316 µM, first compound 0.001 µM) 97.3% | viability, T/C (second compound 0.00316 µM, first compound 0.00316 µM) 107% | viability, T/C (second compound 0.00316 µM, first compound 0.01 µM) 96.7% | viability, T/C [7] 93% | viability, T/C [8] 108% | viability, T/C (second compound 0.01 µM, first compound 0.000316 µM) 104% | viability, T/C (second compound 0.01 µM, first compound 0.001 µM) 103% | viability, T/C (second compound 0.01 µM, first compound 0.00316 µM) 104% | viability, T/C (second compound 0.01 µM, first compound 0.01 µM) 105% | viability, T/C [9] 98.8% | viability, T/C [10] 116% | viability, T/C (second compound 0.0316 µM, first compound 0.000316 µM) 90.9% | viability, T/C (second compound 0.0316 µM, first compound 0.001 µM) 106% | viability, T/C (second compound 0.0316 µM, first compound 0.00316 µM) 86.6% | viability, T/C (second compound 0.0316 µM, first compound 0.01 µM) 87.3% | viability, T/C [11] 93.7% | viability, T/C [12] 80.4% | viability, T/C (second compound 0.1 µM, first compound 0.000316 µM) 75.1% | viability, T/C (second compound 0.1 µM, first compound 0.001 µM) 75.8% | viability, T/C (second compound 0.1 µM, first compound 0.00316 µM) 74.4% | viability, T/C (second compound 0.1 µM, first compound 0.01 µM) 74% | viability, T/C [13] 70.5% | viability, T/C [14] 48.6% | viability, T/C (second compound 0.316 µM, first compound 0.000316 µM) 52.9% | viability, T/C (second compound 0.316 µM, first compound 0.001 µM) 46.5% | viability, T/C (second compound 0.316 µM, first compound 0.00316 µM) 49.9% | viability, T/C (second compound 0.316 µM, first compound 0.01 µM) 40.2% | viability, T/C [15] 35.6% | viability, T/C [16] 26.4% | viability, T/C (second compound 1 µM, first compound 0.000316 µM) 27.6% | viability, T/C (second compound 1 µM, first compound 0.001 µM) 32% | viability, T/C (second compound 1 µM, first compound 0.00316 µM) 28.3% | viability, T/C (second compound 1 µM, first compound 0.01 µM) 26.7% | viability, T/C [17] 21.5% | viability, T/C [18] 19.7%

CC1(C)CCC(Nc2ncc(C(F)(F)F)c(-c3c[nH]c4c(P(C)(C)=O)c(C#N)ccc34)n2)CN1 (stereo not given) + COc1c(OCCCN2CCOCC2)ccc2c3n(c(=NC(=O)c4cnc(N)nc4)nc12)CCN3
< 0.0316 µM: IC50 [4] | IC50 [5] | IC50 [6]
3.6 µM: IC50 [3]
active: viability, T/C [22] 3.27% | viability, T/C [26] 3.28% | viability, T/C [30] 2.59% | viability, T/C [34] 1.87% | viability, T/C [38] 1.42% | viability, T/C [42] 1.68%
inactive: viability, T/C [7] 103% | viability, T/C [8] 84.7% | viability, T/C [19] 87.1% | viability, T/C [20] 85% | viability, T/C [21] 95.1% | viability, T/C [9] 90.8% | viability, T/C [10] 72.4% | viability, T/C [23] 76.6% | viability, T/C [24] 81.7% | viability, T/C [25] 89.5% | viability, T/C [11] 59.7% | viability, T/C [12] 55.2% | viability, T/C [27] 54.9% | viability, T/C [28] 60.6% | viability, T/C [29] 55.9% | viability, T/C [13] 41.8% | viability, T/C [14] 36.6% | viability, T/C [31] 40.8% | viability, T/C [32] 38.2% | viability, T/C [33] 37.9% | viability, T/C [15] 28.5% | viability, T/C [16] 30.3% | viability, T/C [35] 28.9% | viability, T/C [36] 24.8% | viability, T/C [37] 24.7% | viability, T/C [17] 19.4% | viability, T/C [18] 18.4% | viability, T/C [39] 19% | viability, T/C [40] 18.1% | viability, T/C [41] 18%
5.06 µM: IC50 [2]
5.42 µM: IC50 [1]

C=CC(=O)N1CCN(c2nc(=O)n(-c3c(C)ccnc3C(C)C)c3nc(-c4c(O)cccc4F)c(F)cc23)C(C)C1 (stereo not given) + CC(Nc1ccc2c(c1)OCCn1cc(N3C(=O)OCC3C(F)F)nc1-2)C(N)=O
> 10 µM: IC50 [1] | IC50 [2] | IC50 [3] | IC50 [4] | IC50 [5] | IC50 [6]
inactive: viability, T/C [7] 103% | viability, T/C [8] 94.4% | viability, T/C [19] 98.8% | viability, T/C [20] 88.2% | viability, T/C [21] 99.7% | viability, T/C [22] 105% | viability, T/C [9] 105% | viability, T/C [10] 99.2% | viability, T/C [23] 96.9% | viability, T/C [24] 94% | viability, T/C [25] 99.6% | viability, T/C [26] 106% | viability, T/C [11] 97% | viability, T/C [12] 98.5% | viability, T/C [27] 102% | viability, T/C [28] 96% | viability, T/C [29] 113% | viability, T/C [30] 99.6% | viability, T/C [13] 91.7% | viability, T/C [14] 97.2% | viability, T/C [31] 107% | viability, T/C [32] 102% | viability, T/C [33] 107% | viability, T/C [34] 104% | viability, T/C [15] 90.1% | viability, T/C [16] 96.8% | viability, T/C [35] 94.5% | viability, T/C [36] 94% | viability, T/C [37] 108% | viability, T/C [38] 98.4% | viability, T/C [17] 95.1% | viability, T/C [18] 83.7% | viability, T/C [39] 87.4% | viability, T/C [40] 87% | viability, T/C [41] 87.4% | viability, T/C [42] 91.3%

Cn1ncc(Cl)c1-c1cc(C(=O)NC(CN)Cc2cccc(F)c2)sc1Cl (stereo not given) + CC(Nc1ncnc2nc[nH]c12)c1cc2cccc(Cl)c2c(=O)n1-c1ccccc1
> 10 µM: IC50 [3]
4.18 µM: IC50 (curve of first compound, second compound 3.16 µM)
2.26 µM: IC50 (curve of first compound, second compound 10 µM)
8.15 µM: IC50 [4]
inactive: viability, T/C [11] 95.7% | viability, T/C [12] 109% | viability, T/C [27] 103% | viability, T/C [28] 69.4% | viability, T/C [29] 62.4% | viability, T/C [30] 47.8% | viability, T/C [13] 115% | viability, T/C [14] 101% | viability, T/C [31] 96.1% | viability, T/C [32] 83.5% | viability, T/C [33] 64.5% | viability, T/C [34] 46.5% | viability, T/C [15] 103% | viability, T/C [16] 101% | viability, T/C [35] 90.7% | viability, T/C [36] 75.4% | viability, T/C [37] 59.9% | viability, T/C [38] 41% | viability, T/C [17] 107% | viability, T/C [18] 102% | viability, T/C [39] 91.9% | viability, T/C [40] 78.6% | viability, T/C [41] 61.5% | viability, T/C [42] 35.2% | viability, T/C (second compound 3.16 µM, first compound 0.0316 µM) 96.8% | viability, T/C (second compound 3.16 µM, first compound 0.1 µM) 94% | viability, T/C (second compound 3.16 µM, first compound 0.316 µM) 86.3% | viability, T/C (second compound 3.16 µM, first compound 1 µM) 64.4% | viability, T/C (second compound 3.16 µM, first compound 3.16 µM) 57.6% | viability, T/C (second compound 3.16 µM, first compound 10 µM) 37.5% | viability, T/C (second compound 10 µM, first compound 0.0316 µM) 94.3% | viability, T/C (second compound 10 µM, first compound 0.1 µM) 89.6% | viability, T/C (second compound 10 µM, first compound 0.316 µM) 73.5% | viability, T/C (second compound 10 µM, first compound 1 µM) 60.5% | viability, T/C (second compound 10 µM, first compound 3.16 µM) 45.7% | viability, T/C (second compound 10 µM, first compound 10 µM) 38.5%
5.63 µM: IC50 [5]
5.17 µM: IC50 [6]
